Laboratory results taken from paper PMC8224687, “Lipophilicity, Pharmacokinetic Properties, and Molecular Docking Study on SARS-CoV-2 Target for Betulin Triazole Derivatives with Attached 1,4-Quinone” (Pharmaceutics, 2021).
Like-named read-outs stand apart in the source and are kept apart here.

Experiments:
[1] = Experimental lipophilicity by RP-TLC (RM0, logPTLC, hydrophobic index); conditions: for RM0 (chromatographic parameter of lipophilicity): RP-TLC, acetone / TRIS 0.2 M pH 7.4, extrapolated to zero acetone; for hydrophobic index (φ0): φ0 = −RM0/b; for logPTLC (experimental lipophilicity) / chromatographic logP: from RM0 by calibration curve Equation (4); for chromatographic logP: logPTLC (experimental lipophilicity)
[2] = pH 7.4
[3] = design: method as in PMID 9879505, doi:10.1021/ja00193a003; conditions: literature values of standard substances ref 52, 53; cited from earlier work

Compound: C=C(C)[C@@H]1CC[C@]2(COC(=O)c3cn(CCCOC4=C(Cl)C(=O)c5ccncc5C4=O)nn3)CC[C@]3(C)C(CCC4[C@@]5(C)CC[C@H](O)C(C)(C)C5CC[C@]43C)C12 (stereo partly shown) [Compound 5]
- RM0 (chromatographic parameter of lipophilicity) [1]: 3.56
- hydrophobic index (φ0) [1]: 79.81

Compound: C=C(C)[C@@H]1CC[C@]2(COC(=O)c3cn(CCCOC4=C(Cl)C(=O)c5ccccc5C4=O)nn3)CC[C@]3(C)C(CCC4[C@@]5(C)CCC(=O)C(C)(C)C5CC[C@]43C)C12 (stereo partly shown) [Compound 14]
- RM0 (chromatographic parameter of lipophilicity) [1]: 3.84
- logPTLC (experimental lipophilicity) [1]: 4.93
- hydrophobic index (φ0) [1]: 87.76

Compound: C=C(C)[C@@H]1CC[C@]2(COC(=O)c3cn(CCCO)nn3)CC[C@]3(C)C(CCC4[C@@]5(C)CC[C@H](OC(C)=O)C(C)(C)C5CC[C@]43C)C12 (stereo partly shown) [Compound 19]
- RM0 (chromatographic parameter of lipophilicity) [1]: 5.07
- chromatographic logP [1]: 6.33
- hydrophobic index (φ0) [1]: 86.06

Compound: C=C(C)[C@@H]1CC[C@]2(COC(=O)c3cn(CCCOC4=C(Cl)C(=O)c5ccccc5C4=O)nn3)CC[C@]3(C)C(CCC4[C@@]5(C)CC[C@H](OC(C)=O)C(C)(C)C5CC[C@]43C)C12 (stereo partly shown) [Compound 15]
- RM0 (chromatographic parameter of lipophilicity) [1]: 4.21
- logPTLC (experimental lipophilicity) [1]: 5.35
- hydrophobic index (φ0) [1]: 85.11

Compound: C=C(C)[C@@H]1CC[C@]2(COC(=O)c3cn(CCCOC4=C(Cl)C(=O)c5cccnc5C4=O)nn3)CC[C@]3(C)C(CCC4[C@@]5(C)CC[C@H](O)C(C)(C)C5CC[C@]43C)C12 (stereo partly shown) [Compound 1]
- RM0 (chromatographic parameter of lipophilicity) [1]: 3.51
- hydrophobic index (φ0) [1]: 82.40

Compound: C=C(C)[C@@H]1CC[C@]2(COC(=O)c3cn(CCCOC4=C(Cl)C(=O)c5ccc(C)nc5C4=O)nn3)CC[C@]3(C)C(CCC4[C@@]5(C)CCC(=O)C(C)(C)C5CC[C@]43C)C12 (stereo partly shown) [Compound 10]
- RM0 (chromatographic parameter of lipophilicity) [1]: 3.77
- hydrophobic index (φ0) [1]: 83.85

Compound: C=C(C)[C@@H]1CC[C@]2(COC(=O)c3cn(CCCO)nn3)CC[C@]3(C)C(CCC4[C@@]5(C)CCC(=O)C(C)(C)C5CC[C@]43C)C12 (stereo partly shown) [Compound 18]
- RM0 (chromatographic parameter of lipophilicity) [1]: 4.54
- chromatographic logP [1]: 5.73
- hydrophobic index (φ0) [1]: 83.67

Compound: C=C(C)[C@@H]1CC[C@]2(COC(=O)c3cn(CCCOC4=C(Cl)C(=O)c5cccnc5C4=O)nn3)CC[C@]3(C)C(CCC4[C@@]5(C)CCC(=O)C(C)(C)C5CC[C@]43C)C12 (stereo partly shown) [Compound 2]
- RM0 (chromatographic parameter of lipophilicity) [1]: 3.64
- chromatographic logP [1]: 4.71
- hydrophobic index (φ0) [1]: 83.14

Compound: C=C(C)[C@@H]1CC[C@]2(COC(=O)c3cn(CCCOC4=C(Cl)C(=O)c5ccncc5C4=O)nn3)CC[C@]3(C)C(CCC4[C@@]5(C)CCC(=O)C(C)(C)C5CC[C@]43C)C12 (stereo partly shown) [Compound 6]
- RM0 (chromatographic parameter of lipophilicity) [1]: 3.59
- hydrophobic index (φ0) [1]: 82.83

Compound: C=C(C)[C@@H]1CC[C@]2(COC(=O)c3cn(CCCOC4=C(Cl)C(=O)c5ccncc5C4=O)nn3)CC[C@]3(C)C(CCC4[C@@]5(C)CC[C@H](OC(C)=O)C(C)(C)C5CC[C@]43C)C12 (stereo partly shown) [Compound 7]
- RM0 (chromatographic parameter of lipophilicity) [1]: 4.07
- chromatographic logP [1]: 5.2
- hydrophobic index (φ0) [1]: 83.48

Compound: C=C(C)[C@@H]1CC[C@]2(COC(=O)c3cn(CCCOC4=C(Cl)C(=O)c5ccncc5C4=O)nn3)CC[C@]3(C)C(CCC4[C@@]5(C)CC[C@H](OC(=O)CC)C(C)(C)C5CC[C@]43C)C12 (stereo partly shown) [Compound 8]
- RM0 (chromatographic parameter of lipophilicity) [1]: 4.24
- logPTLC (experimental lipophilicity) [1]: 5.39
- hydrophobic index (φ0) [1]: 88.21

Compound: C=C(C)[C@@H]1CC[C@]2(COC(=O)c3cn(CCCOC4=C(Cl)C(=O)c5ccccc5C4=O)nn3)CC[C@]3(C)C(CCC4[C@@]5(C)CC[C@H](OC(=O)CC)C(C)(C)C5CC[C@]43C)C12 (stereo partly shown) [Compound 16]
- RM0 (chromatographic parameter of lipophilicity) [1]: 4.58
- chromatographic logP [1]: 5.77
- hydrophobic index (φ0) [1]: 86.18

Compound: c1ccc(CCc2ccccc2)cc1 [Dibenzyl, dibenzyl]
- RM0 (chromatographic parameter of lipophilicity) [2]: 3.65

Compound: C=C(C)[C@@H]1CC[C@]2(COC(=O)c3cn(CCCOC4=C(Cl)C(=O)c5ccc(C)nc5C4=O)nn3)CC[C@]3(C)C(CCC4[C@@]5(C)CC[C@H](OC(=O)CC)C(C)(C)C5CC[C@]43C)C12 (stereo partly shown) [Compound 12]
- RM0 (chromatographic parameter of lipophilicity) [1]: 4.39
- logPTLC (experimental lipophilicity) [1]: 5.56
- hydrophobic index (φ0) [1]: 88.32

Compound: C=C(C)[C@@H]1CC[C@]2(COC(=O)c3cn(CCCOC4=C(Cl)C(=O)c5cccnc5C4=O)nn3)CC[C@]3(C)C(CCC4[C@@]5(C)CC[C@H](OC(=O)CC)C(C)(C)C5CC[C@]43C)C12 (stereo partly shown) [Compound 4]
- RM0 (chromatographic parameter of lipophilicity) [1]: 4.08
- chromatographic logP [1]: 5.21
- hydrophobic index (φ0) [1]: 87.00

Compound: Clc1ccc(C(c2ccc(Cl)cc2)C(Cl)(Cl)Cl)cc1 [DDT, dichlorodiphenyltrichloroethane, reference compound]
- logPlit [3]: 6.01
- RM0 (chromatographic parameter of lipophilicity) [1]: 4.87
- logPTLC (experimental lipophilicity) [1]: 6.17

Compound: C=C(C)[C@@H]1CC[C@]2(COC(=O)c3cn(CCCO)nn3)CC[C@]3(C)C(CCC4[C@@]5(C)CC[C@H](OC(=O)CC)C(C)(C)C5CC[C@]43C)C12 (stereo partly shown) [Compound 20]
- RM0 (chromatographic parameter of lipophilicity) [1]: 5.26
- chromatographic logP [1]: 6.55
- hydrophobic index (φ0) [1]: 87.13

Compound: C[C@]12C=CC(=O)C=C1CC[C@@H]1[C@@H]2C(=O)C[C@@]2(C)[C@H]1CC[C@]2(O)C(=O)CO [Prednisone, prednisone, reference compound]
- chromatographic logP (physchem): 1.39
- RM0 (chromatographic parameter of lipophilicity) [1]: 0.73

Compound: C=C(C)[C@@H]1CC[C@]2(COC(=O)c3cn(CCCOC4=C(Cl)C(=O)c5ccccc5C4=O)nn3)CC[C@]3(C)C(CCC4[C@@]5(C)CC[C@H](O)C(C)(C)C5CC[C@]43C)C12 (stereo partly shown) [Compound 13]
- RM0 (chromatographic parameter of lipophilicity) [1]: 3.78
- logPTLC (experimental lipophilicity) [1]: 4.87
- hydrophobic index (φ0) [1]: 87.13

Compound: C=C(C)[C@@H]1CC[C@]2(COC(=O)c3cn(CCCOC4=C(Cl)C(=O)c5cccnc5C4=O)nn3)CC[C@]3(C)C(CCC4[C@@]5(C)CC[C@H](OC(C)=O)C(C)(C)C5CC[C@]43C)C12 (stereo partly shown) [Compound 3]
- RM0 (chromatographic parameter of lipophilicity) [1]: 3.97
- logPTLC (experimental lipophilicity) [1]: 5.08
- hydrophobic index (φ0) [1]: 84.76

Compound: C=C(C)[C@@H]1CC[C@]2(COC(=O)c3cn(CCCOC4=C(Cl)C(=O)c5ccc(C)nc5C4=O)nn3)CC[C@]3(C)C(CCC4[C@@]5(C)CC[C@H](OC(C)=O)C(C)(C)C5CC[C@]43C)C12 (stereo partly shown) [Compound 11]
- RM0 (chromatographic parameter of lipophilicity) [1]: 4.12
- logPTLC (experimental lipophilicity) [1]: 5.26
- hydrophobic index (φ0) [1]: 85.94

Compound: CC(=O)Nc1ccccc1 [Acetanilide, acetanilide, reference compound]
- RM0 (chromatographic parameter of lipophilicity) [1]: 0.55
- chromatographic logP [1]: 1.19

Compound: c1ccc2cc3ccccc3cc2c1 [Anthracene, anthracene, reference compound]
- RM0 (chromatographic parameter of lipophilicity) [1]: 3.48
- chromatographic logP [1]: 4.52

Compound: C=C(C)[C@@H]1CC[C@]2(COC(=O)c3cn(CCCO)nn3)CC[C@]3(C)C(CCC4[C@@]5(C)CC[C@H](O)C(C)(C)C5CC[C@]43C)C12 (stereo partly shown) [Compound 17]
- RM0 (chromatographic parameter of lipophilicity) [1]: 4.40
- chromatographic logP [1]: 5.57
- hydrophobic index (φ0) [1]: 82.62

Compound: C=C(C)[C@@H]1CC[C@]2(COC(=O)c3cn(CCCOC4=C(Cl)C(=O)c5ccc(C)nc5C4=O)nn3)CC[C@]3(C)C(CCC4[C@@]5(C)CC[C@H](O)C(C)(C)C5CC[C@]43C)C12 (stereo partly shown) [Compound 9]
- RM0 (chromatographic parameter of lipophilicity) [1]: 3.65
- chromatographic logP [1]: 4.72
- hydrophobic index (φ0) [1]: 82.43

Compound: CC(=O)c1ccc(Br)cc1 [4-Bromoacetophenone, 4-bromoacetophenone]
- RM0 (chromatographic parameter of lipophilicity) [2]: 1.89
